Assays:
[1] = test system: adjuvant-induced arthritis rat; assay: Effect of inhibition of hind paw weight distribution in adjuvant-induced arthritis rat; format: in vivo; conditions: oral, female Lewis rats, day after adjuvant, Vehicle group 0%, Normal group 100%, read-out: Inhibition rate (%) of hind paw load difference
Description: For this test, female Lewis rats (7- to 8-weeks-old) were used. 50 μL of killed Mycobacterium tuberculosis H37 Ra (manufactured by DIFCO MICROBIOLOGY) suspended in liquid paraffin at a concentration of 10 mg/mL was subcutaneously administered to the right hind footpad. On the next day, the test substance was administered orally, and after some time, the load on the left and right hind paws was measured using an Incapacitance Tester (manufactured by Linton Instruments), thereby calculating a difference in the load between left and right. The load difference of a Vehicle-administered group was regarded as an inhibition rate of 0%, and the load difference of a Normal group was regarded as an inhibition rate of 100%, thereby allowing calculation of the inhibition rate of the test substance.
In the table, Ex represents an example number of a test compound described later, and values in the parenthesis indicates a dose.

[2] = target: T1, human CB2 (Homo sapiens, UniProt P34972); assay: Test on inhibition of human CB2-mediated cyclic AMP (cAMP) production; format: cell-based; conditions: 30 nM test substance; forskolin 0.5 μM; human CB2-expressing CHO cells; 30 minutes at room temperature; read-out: Inh(%): inhibition rate of cAMP increase
T1 construct: expressed in transfected cells; host or cells: CHO cells
Description: This test was performed using CHO cells caused to express human CB2 (“Molecular Pharmacology”, 1995, Vol. 48, pp 443-450).
A human CB2-expressing CHO cell (2.5×10^3/mL) suspension and an assay medium supplemented with a test substance and forskolin (final concentration of 0.5 μM) were mixed together in equal amounts, followed by incubation for 30 minutes at room temperature, and then a 0.6% Triton X-100 solution was added thereto, thereby obtaining a cell lysate. A cAMP concentration in the cell lysate was measured using a cAMP kit (manufactured by Cisbio International). The assay medium was obtained by supplementing α-MEM manufactured by Invitrogen with 0.02% CHAPS, 1 mM isobutylmethylxanthine, and 0.5 mg/mL bovine serum albumin. The cAMP concentration in a forskolin-free cell suspension was regarded as 0% of increase in cAMP, and the cAMP concentration in a forskolin-added cell suspension was regarded as a 100% increase in cAMP, thereby allowing calculation of the inhibition rate of intracellular cAMP increase in 30 nM test substance.
In the table, Ex represents the example number of a test compound described later, and Inh represents inhibition rate of cAMP increase.

T1 sequence (P34972 whole entry): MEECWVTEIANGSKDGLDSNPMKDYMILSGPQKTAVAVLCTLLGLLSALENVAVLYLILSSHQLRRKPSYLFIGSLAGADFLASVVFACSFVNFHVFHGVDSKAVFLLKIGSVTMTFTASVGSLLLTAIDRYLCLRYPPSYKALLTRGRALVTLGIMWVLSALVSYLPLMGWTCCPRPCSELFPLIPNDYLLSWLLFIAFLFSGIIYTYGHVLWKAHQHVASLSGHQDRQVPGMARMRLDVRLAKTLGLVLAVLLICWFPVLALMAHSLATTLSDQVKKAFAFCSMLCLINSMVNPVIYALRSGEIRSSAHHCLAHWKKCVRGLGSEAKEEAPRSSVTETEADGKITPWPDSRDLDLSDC

Row | SMILES | inhibition in vivo at 0.1 mg/kg [1] [%] | inhibition at 0.03 µM [2] [%] | inhibition in vivo at 0.3 mg/kg [1] [%]
1 | O=C(c1ncc(Nc2cccc(Cl)c2)c2c1CCCC2)N1CCS(=O)(=O)CC1 [Example 10] | 30 | 73 | –
2 | O=C(c1cnc(N[C@@H]2C[C@H]3CC[C@@H]2C3)c2c1CCCC2)N1CCOCC1 [Example 11] | – | 77 | –
3 | O=C(c1cnc(Nc2cccc(OC(F)(F)F)c2)c2c1CCCC2)N1CCOCC1 [Example 16] | 29 | 87 | –
4 | O=C(c1cnc(Nc2cccc(Cl)c2)c2c1CCCC2)N1CCS(=O)(=O)CC1 [Example 30] | 17 | 82 | –
5 | O=C(c1ncc(Nc2cccc(C(F)(F)F)c2)c2c1CCCC2)N1CCS(=O)(=O)CC1 [Example 36] | 49 | 82 | –
6 | CC1(C)CCCC(Nc2ncc(C(=O)N3CCS(=O)(=O)CC3)c3c2CCCC3)C1 (stereo not shown) [Example 38] | – | 77 | –
7 | O=C(c1cnc(Oc2cccc(C(F)(F)F)c2)c2c1CCCC2)N1CCS(=O)(=O)CC1 [Example 52] | – | 96 | –
8 | O=C(c1ncc(Nc2ccc(F)c(Cl)c2)c2c1C1CCC2C1)N1CCS(=O)(=O)CC1 (stereo not shown) [Example 59] | – | 93 | –
9 | O=C(c1ncc(Nc2cccc(Cl)c2)c2c1C1CCC2C1)N1CCS(=O)(=O)CC1 (stereo not shown) [Example 94-1] | – | 97 | –
10 | O=C(c1ncc(Nc2cccc(Cl)c2)c2c1C1CCC2CC1)N1CCS(=O)(=O)CC1 [Example 98] | – | 96 | –
11 | O=C(c1cnc(Nc2cccc(Cl)c2)c2c1C1CCC2CC1)N1CCS(=O)(=O)CC1 [Example 101] | – | 99 | –
12 | O=C(c1cnc(Nc2cccc(C(F)(F)F)c2)c2c1C1CCC2CC1)N1CCS(=O)(=O)CC1 [Example 112] | – | 103 | –
13 | O=C(c1cnc(Nc2cccc(Cl)c2)c2c1C1CCC2C1)N1CCS(=O)(=O)CC1 (stereo not shown) [Example 117-2] | – | 100 | –
14 | O=C(c1cnc(Nc2ccc(F)c(Cl)c2)c2c1C1CCC2C1)N1CCS(=O)(=O)CC1 (stereo not shown) [Example 119-2] | – | 91 | 49
15 | O=C(c1cnc(Nc2cccc(OC(F)(F)F)c2)c2c1C1CCC2C1)N1CCS(=O)(=O)CC1 (stereo not shown) [Example 120-2] | – | 105 | 34
16 | O=C(c1ncc(Nc2cccc(OC(F)(F)F)c2)c2c1C1CCC2CC1)N1CCS(=O)(=O)CC1 [Example 125] | – | 100 | –
17 | O=C(c1ncc(Nc2ccc(F)c(C(F)(F)F)c2)c2c1C1CCC2CC1)N1CCS(=O)(=O)CC1 [Example 129] | – | 95 | –
18 | O=C(c1cnc(Nc2ccc(F)c(C(F)(F)F)c2)c2c1C1CCC2C1)N1CCS(=O)(=O)CC1 (stereo not shown) [Example 133-2] | – | 90 | 39
19 | O=C(c1cnc(Nc2ccc(F)c(F)c2)c2c1C1CCC2CC1)N1CCS(=O)(=O)CC1 [Example 138] | – | 97 | 54
20 | Cc1cccc(Nc2cnc(C(=O)N3CCS(=O)(=O)CC3)c3c2C2CCC3CC2)c1F [Example 164] | – | 119 | –
21 | Cc1ccc(F)c(Nc2cnc(C(=O)N3CCS(=O)(=O)CC3)c3c2C2CCC3CC2)c1 [Example 165] | – | 111 | –
22 | Cc1ccc(Nc2cnc(C(=O)N3CCS(=O)(=O)CC3)c3c2C2CCC3CC2)cc1Cl [Example 167] | – | 115 | –
23 | O=C(c1cnc(Nc2cc(F)cc(Cl)c2)c2c1C1CCC2CC1)N1CCS(=O)(=O)CC1 [Example 179] | – | 100 | –
